Source: ChEMBL document CHEMBL1158104, “Mooloolabenes A-E, norsesterterpenes from the Australian sponge Hyattella intestinalis” (J Nat Prod, 2006)
≈ marks a conversion by molar mass, not a printed value.

tested on: P388; experiment: Cytotoxicity against mouse P388 cells; format: functional, cell-based

Point of comparison: CC(=O)O[C@@H]1OCC2=CC[C@H]3C4=C[C@@H](OC(C)=O)[C@H]5C(C)(C)CCC[C@]5(C)[C@H]4CC[C@]3(C)[C@H]21 [MOOLOOLABENE D], IC50 3 µg/mL (≈ 6.57 µM). Against it:
- CC1(C)CCC[C@]2(C)[C@H]3CC[C@]4(C)[C@@H](C=O)C(C=O)=CC[C@H]4C3=CC[C@@H]12 [MOOLOOLABENE A] — 3.8-fold lower, 0.8 µg/mL (≈ 2.26 µM)
- CC1(C)CCC[C@]2(C)[C@H]3CC[C@]4(C)[C@H](C=O)C(C=O)=CC[C@H]4C3=CC[C@@H]12 [MOOLOOLABENE B] — 2.5-fold lower, 1.2 µg/mL (≈ 3.38 µM)
- CC(=O)OC[C@@]1(C)CCC[C@]2(C)[C@H]3CC[C@]4(C)[C@@H](C=O)C(C=O)=CC[C@H]4C3=CC[C@@H]12 [MOOLOOLABENE C] — the same, 3 µg/mL (≈ 7.27 µM)
- CC(=O)O[C@@H]1OCC2=CC[C@H]3C4=CC[C@H]5C(C)(C)CCC[C@]5(C)[C@H]4CC[C@]3(C)[C@H]21 [MOOLOOLABENE E] — the same, 3 µg/mL (≈ 7.53 µM)
- CC(=O)O[C@@H]1OC=C2CC[C@@H]3[C@](C)(CC[C@@H]4[C@@]5(C)CCCC(C)(C)[C@@H]5CC[C@@]34C=O)[C@H]21 [MOOLOOLALDEHYDE] — the same, 3 µg/mL (≈ 7 µM)
